Measured values published in US20080207614A1, “QUINAZOLINE DERIVATIVES FOR THE TREATMENT AND PREVENTION OF DIABETES AND OBESITY” (SK CHEMICALS CO., LTD., priority 2004, published 2008).

tested on: C2C12 muscle cells; assay: Analysis of glucose absorption (2-deoxyglucose) in differentiated C2C12 muscle cells; assay type: cell-based; conditions: test materials 10 μM, times relative to control group
Procedure: C2C12 muscle cells were cultured in DMEM (Dulbecco's modified Eagle's medium) containing 10% bovine calf serum. When the cell density increased to about 85 to 90%, the culture medium was replaced with 1% bovine calf serum and cell differentiation was induced for 6 days. Completely differentiated cells were cultured for 3 hours with Krebs-Ringer buffer (KRB) containing 5 mM glucose. The test materials were added at a concentration of 10 μM. 30 minutes later, 0.2 μCi 2-deoxyglucose was added. KRB was removed 20 minutes later and the cells were washed for 3 times with cold PBS. The cells were lysed with 0.5N NaOH and counted using a radioactive counter.

SMILES	Glucose absorption
CCCCNc1nc(SCC)nc2ccccc12 [Compound 19, Butyl-(2-ethylsulfanylquinazolino-4-yl)-amine]	1.4
CCSc1nc(NCC(C)C)c2ccccc2n1 [Compound 21, (2-Ethylsulfanylquinazolino-4-yl)-isobutylamine]	1.2
CCSc1nc(NC(C)c2ccccc2)c2ccccc2n1 (centres unmarked) [Compound 23, (2-Ethylsulfanylquinazolino-4-yl)-(1-phenylethyl)-amine]	0.8
CCSc1nc(NC2CCCCC2)c2ccccc2n1 [Compound 27, Cyclohexyl-(2-ethylsulfanylquinazolino-4-yl)-amine]	1.0
CCSc1nc(NC2CCCC2)c2ccccc2n1 [Compound 28, Cyclopentyl-(2-ethylsulfanylquinazolino-4-yl)-amine]	1.1
CCCNc1nc(SCC)nc2ccccc12 [Compound 31, (2-Ethylsulfanylquinazolino-4-yl)-propylamine]	1.1
CCSc1nc(NCCCc2ccccc2)c2ccccc2n1 [Compound 32, (2-Ethylsulfanylquinazoline-4-yl)-(3-phenylpropyl)-amine]	1.1
CCSc1nc(NCCCOC(C)C)c2ccccc2n1 [Compound 33, (2-Ethylsulfanylquinazolino-4-yl)-(3-isopropoxypropyl)-amine]	1.2
CCSc1nc(NCCOC)c2ccccc2n1 [Compound 34, (2-Ethylsulfanylquinazolino-4-yl)-(2-methoxy-ethyl)-amine]	1.3
CCSc1nc(NCCCN2CCOCC2)c2ccccc2n1 [Compound 36, (2-Ethylsulfanylquinazolino-4-yl)-(3-morpholino-4-ylpropyl)-amine]	1.4
CCSc1nc(NCc2cc(OC)cc(OC)c2)c2ccccc2n1 [Compound 38, (3,5-Dimethoxybenzyl)-(2-ethylsulfanylquinazolino-4-yl)-amine]	1.5
CCSc1nc(NCc2ccccc2F)c2ccccc2n1 [Compound 39, (2-Ethylsulfanylquinazolino-4-yl)-(2-fluorobenzyl)-amine]	0.9
CCSc1nc(NC(CC)COC)c2ccccc2n1 (centres unmarked) [Compound 40, (2-Ethylsulfanylquinazolino-4-yl)-(1-methoxymethylpropyl)-amine]	1.2
CCSc1nc(NC2CCN(Cc3ccccc3)CC2)c2ccccc2n1 [Compound 41, (1-Benzyl-piperidino-4-yl)-(2-ethylsulfanylquinazolino-4-yl)-amine]	1.1
C=CCNc1nc(SCC)nc2ccccc12 [Compound 42, Allyl-(2-ethylsulfanylquinazolino-4-yl)-amine]	1.1
CCCCCCCCCCCCCCCCNc1nc(SCC)nc2ccccc12 [Compound 43, (2-Ethylsulfanylquinazolino-4-yl)-hexadecylamine]	1.1
CCSc1nc(NCCN2CCCCC2)c2ccccc2n1 [Compound 44, (2-Ethylsulfanylquinazolino-4-yl)-(2-piperidino-1-ylethyl)-amine]	1.3
CCSc1nc(NCCN2CCCC2)c2ccccc2n1 [Compound 45, (2-Ethylsulfanylquinazolino-4-yl)-(2-pyrrolidino-1-ylethyl)-amine]	1.1
CCSc1nc(NCCc2ccccn2)c2ccccc2n1 [Compound 46, (2-Ethylsulfanylquinazolino-4-yl)-(2-pyridino-2-ylethyl)-amine]	1.1
CCSc1nc(NCCO)c2ccccc2n1 [Compound 47, 2-(2-Ethylsulfanylquinazolino-4-ylamino)-ethanol]	0.9
CCSc1nc(NCCCN2CCCCC2C)c2ccccc2n1 (centres unmarked) [Compound 48, (2-Ethylsulfanylquinazolino-4-yl)-[3-(2-methyl-piperidino-1-yl)-propyl]-amine]	1.0
CCSc1nc(NCCOCCO)c2ccccc2n1 [Compound 50, 2-[2-(2-Ethylsulfanylquinazolino-4-ylamino)-ethoxy]-ethanol]	1.2
c1ccc(-c2nc(NC3CCCCC3)c3ccccc3n2)cc1 [Compound 51, Cyclohexyl-(2-phenylquinazolino-4-yl)-amine]	1.0
c1ccc(CCCCNc2nc(-c3ccccc3)nc3ccccc23)cc1 [Compound 52, (4-Phenylbutyl)-(2-phenylquinazolino-4-yl)-amine]	1.3
c1ccc(CCCCCNc2nc(-c3ccccc3)nc3ccccc23)cc1 [Compound 53, (5-Phenyl-pentyl)-(2-phenylquinazolino-4-yl)-amine]	1.2
Cc1ccc(CNc2nc(-c3ccccc3)nc3ccccc23)cc1 [Compound 54, (4-Methylbenzyl)-(2-phenylquinazolino-4-yl)-amine]	1.2
CC(C)CNc1nc(-c2ccccc2)nc2ccccc12 [Compound 55, Isobutyl-(2-phenylquinazolino-4-yl)-amine]	1.2

SMILES	Glucose absorption
CCCCNc1nc(-c2ccccc2)nc2ccccc12 [Compound 56, Butyl-(2-phenylquinazolino-4-yl)-amine]	1.1
c1ccc(-c2nc(NCc3cccc4ccccc34)c3ccccc3n2)cc1 [Compound 57, Naphthaleno-1-ylmethyl-(2-phenylquinazolino-4-yl)-amine]	1.0
c1ccc(-c2nc(NCc3cccs3)c3ccccc3n2)cc1 [Compound 59]	1.2
CC(C)Nc1nc(-c2ccccc2)nc2ccccc12 [Compound 60, Isopropyl-(2-phenylquinazolino-4-yl)-amine]	1.0
CC(C)OCCCNc1nc(-c2ccccc2)nc2ccccc12 [Compound 62, (3-Isopropoxypropyl)-(2-phenylquinazolino-4-yl)-amine]	1.1
Fc1cccc(CNc2nc(-c3ccccc3)nc3ccccc23)c1 [Compound 63, (3-Fluorobenzyl)-(2-phenylquinazolino-4-yl)-amine]	1.1
FC(F)(F)c1cccc(CCNc2nc(-c3ccccc3)nc3ccccc23)c1 [Compound 64, (2-Phenylquinazolino-4-yl)-[2-(3-trifluoromethyl-phenyl)-ethyl]-amine]	1.2
c1ccc(-c2nc(NCc3ccc4c(c3)OCO4)c3ccccc3n2)cc1 [Compound 65, Benzo[1,3]dioxol-5-ylmethyl-(2-phenylquinazolino-4-yl)-amine]	1.4
FC(F)(F)c1cccc(CNc2nc(-c3ccccc3)nc3ccccc23)c1 [Compound 66, (2-Phenylquinazolino-4-yl)-(3-trifluoromethylbenzyl)-amine]	1.3
COCCNc1nc(-c2ccccc2)nc2ccccc12 [Compound 67, (2-Methoxy-ethyl)-(2-phenylquinazolino-4-yl)-amine]	0.9
c1ccc(CCNc2nc(-c3ccccc3)nc3ccccc23)cc1 [Compound 68, Phenethyl-(2-phenylquinazolino-4-yl)-amine]	1.3
c1ccc(Nc2nc(-c3ccccc3)nc3ccccc23)cc1 [Compound 69, Phenyl-(2-phenylquinazolino-4-yl)-amine]	1.0
COc1ccc(Nc2nc(-c3ccccc3)nc3ccccc23)cc1 [Compound 70, (4-Methoxyphenyl)-(2-phenylquinazolino-4-yl)-amine]	1.0
Cc1ccccc1Nc1nc(-c2ccccc2)nc2ccccc12 [Compound 71, (2-Phenylquinazolino-4-yl)-o-tollylamine]	1.0
CC(C)c1ccc(Nc2nc(-c3ccccc3)nc3ccccc23)cc1 [Compound 72, (4-Isopropyl-phenyl)-(2-phenylquinazolino-4-yl)-amine]	1.1
Cc1ccc(Nc2nc(-c3ccccc3)nc3ccccc23)c(C)c1 [Compound 73, (2,4-Dimethyl-phenyl)-(2-phenylquinazolino-4-yl)-amine]	1.0
CCCCCCCCCCCc1ccc(Nc2nc(-c3ccccc3)nc3ccccc23)cc1 [Compound 74, (2-Phenylquinazolino-4-yl)-(4-undecyl-phenyl)-amine]	0.9
CCc1ccc(Nc2nc(-c3ccccc3)nc3ccccc23)cc1 [Compound 75, (4-Ethyl-phenyl)-(2-phenylquinazolino-4-yl)-amine]	1.3
Fc1ccc(Nc2nc(-c3ccccc3)nc3ccccc23)cc1 [Compound 76, (4-Fluorophenyl)-(2-phenylquinazolino-4-yl)-amine]	1.0
COc1ccccc1Nc1nc(-c2ccccc2)nc2ccccc12 [Compound 77, (2-Methoxyphenyl)-(2-phenylquinazolino-4-yl)-amine]	1.4
Cc1cc(C)c(Nc2nc(-c3ccccc3)nc3ccccc23)c(C)c1 [Compound 78, (2-Phenylquinazolino-4-yl)-(2,4,6-trimethyl-phenyl)-amine]	1.4
CCCCc1ccc(Nc2nc(-c3ccccc3)nc3ccccc23)cc1 [Compound 79, (4-Butyl-phenyl)-(2-phenylquinazolino-4-yl)-amine]	1.1
c1ccc(Oc2ccccc2Nc2nc(-c3ccccc3)nc3ccccc23)cc1 [Compound 80, (2-Phenoxy-phenyl)-(2-phenylquinazolino-4-yl)-amine]	1.0
c1ccc(Oc2cccc(Nc3nc(-c4ccccc4)nc4ccccc34)c2)cc1 [Compound 81, (3-Phenoxy-phenyl)-(2-phenylquinazolino-4-yl)-amine]	0.9
c1ccc(Oc2ccc(Nc3nc(-c4ccccc4)nc4ccccc34)cc2)cc1 [Compound 82, (4-Phenoxy-phenyl)-(2-phenylquinazolino-4-yl)-amine]	1.2
Brc1cccc(Nc2nc(-c3ccccc3)nc3ccccc23)c1 [Compound 83, (3-Bromophenyl)-(2-phenylquinazolino-4-yl)-amine]	0.7
